US11548893B2 (priority 2017, dated 2023)
Where two headings read alike, the source gives them in different places.

Experiments:
[1] = in vitro; conditions: African green monkey, Cytotox CC50
[2] = tested on: SUDV (glycoprotein, VSV pseudotype); experiment: microbe, parasite or virus in culture; assay type: cell-based, Sudan ebolavirus; conditions: Vesicular stomatitis virus, Vero, 24 h, read-out: EC50 Pseudotype Assays SUDV
[3] = tested on: BDBV (mucin-deleted glycoprotein, VSV pseudotype); experiment: microbe, parasite or virus in culture; assay type: cell-based, Bundibugyo ebolavirus; conditions: Vesicular stomatitis virus, Vero, 24 h, read-out: EC50 Pseudotype Assays BDBV
[4] = tested on: Ebola Zaire
[5] = tested on: MARV (full-length glycoprotein, VSV pseudotype); experiment: microbe, parasite or virus in culture; assay type: cell-based, Marburg marburgvirus; conditions: Vesicular stomatitis virus, Vero, 24 h, read-out: EC50 Pseudotype Assays MARV
[6] = tested on: EBOV_FL: full-length Ebola Zaire GP (VSV pseudotype); experiment: microbe, parasite or virus in culture; assay type: cell-based, Zaire ebolavirus; conditions: Zaire ebolavirus, Vero, 24 h, read-out: EC50 Pseudotype Assays EBOV_FL
[7] = tested on: Ebola Zaire; experiment: microbe, parasite or virus in culture; conditions: Zaire ebolavirus, read-out: Ebola Zaire EC50
[8] = tested on: EBOV (mucin-deleted glycoprotein, VSV pseudotype); experiment: microbe, parasite or virus in culture; assay type: cell-based, Zaire ebolavirus; conditions: Zaire ebolavirus, Vero, 24 h, read-out: EC50 Pseudotype Assays EBOV
[9] = tested on: Sudan Gulu
[10] = microsomes, 1 h
[11] = tested on: Sudan Gulu; experiment: organism not typed; conditions: read-out: Sudan Gulu EC50
[12] = microsomes, 1 h; remark: listed apart in the source
[13] = microsomes, 1 h; remark: listed apart in the source
[14] = microsomes, 1 h; remark: listed apart in the source
[15] = pH 7
[16] = target: Cyp-p450 2D6 (Homo sapiens, UniProt P10635)
[17] = target: Cyp-p450 3A4 (Homo sapiens, UniProt P08684)
[18] = in vitro; conditions: African green monkey
[19] = tested on: Sudan Gulu; experiment: organism not typed; conditions: HeLa, read-out: Sudan Gulu EC50
[20] = target: Cyp-p450 2C9 (Homo sapiens, UniProt P11712)
[21] = target: Cyp-p450 1A2 (Homo sapiens, UniProt P05177)
[22] = in vitro; conditions: mouse
[23] = in vitro; conditions: human, Caco-2
[24] = tested on: Ebola Zaire; experiment: microbe, parasite or virus in culture; conditions: Zaire ebolavirus, HeLa, read-out: Ebola Zaire EC50
[25] = tested on: Ebola Zaire; remark: listed apart in the source
[26] = target: Cyp-p450 2B6 (Homo sapiens, UniProt P20813)
[27] = target: Cyp-p450 2C8 (Homo sapiens, UniProt P10632)
[28] = tested on: EBOV (Mayinga); experiment: microbe, parasite or virus in culture; assay type: cell-based, Ebola virus
[29] = target: P-gp (Homo sapiens, UniProt P08183)
[30] = tested on: Ebola Zaire; experiment: microbe, parasite or virus in culture; conditions: Zaire ebolavirus, read-out: Ebola Zaire EC90
[31] = physchem; conditions: pH 7, kinetic from dmso stock
[32] = in vitro; conditions: human
[33] = target: Cyp-p450 2C19 (Homo sapiens, UniProt P33261)
[34] = tested on: Sudan Gulu; experiment: organism not typed; conditions: read-out: Sudan Gulu EC50; remark: listed apart in the source

Sequence of P-gp (P08183 whole entry): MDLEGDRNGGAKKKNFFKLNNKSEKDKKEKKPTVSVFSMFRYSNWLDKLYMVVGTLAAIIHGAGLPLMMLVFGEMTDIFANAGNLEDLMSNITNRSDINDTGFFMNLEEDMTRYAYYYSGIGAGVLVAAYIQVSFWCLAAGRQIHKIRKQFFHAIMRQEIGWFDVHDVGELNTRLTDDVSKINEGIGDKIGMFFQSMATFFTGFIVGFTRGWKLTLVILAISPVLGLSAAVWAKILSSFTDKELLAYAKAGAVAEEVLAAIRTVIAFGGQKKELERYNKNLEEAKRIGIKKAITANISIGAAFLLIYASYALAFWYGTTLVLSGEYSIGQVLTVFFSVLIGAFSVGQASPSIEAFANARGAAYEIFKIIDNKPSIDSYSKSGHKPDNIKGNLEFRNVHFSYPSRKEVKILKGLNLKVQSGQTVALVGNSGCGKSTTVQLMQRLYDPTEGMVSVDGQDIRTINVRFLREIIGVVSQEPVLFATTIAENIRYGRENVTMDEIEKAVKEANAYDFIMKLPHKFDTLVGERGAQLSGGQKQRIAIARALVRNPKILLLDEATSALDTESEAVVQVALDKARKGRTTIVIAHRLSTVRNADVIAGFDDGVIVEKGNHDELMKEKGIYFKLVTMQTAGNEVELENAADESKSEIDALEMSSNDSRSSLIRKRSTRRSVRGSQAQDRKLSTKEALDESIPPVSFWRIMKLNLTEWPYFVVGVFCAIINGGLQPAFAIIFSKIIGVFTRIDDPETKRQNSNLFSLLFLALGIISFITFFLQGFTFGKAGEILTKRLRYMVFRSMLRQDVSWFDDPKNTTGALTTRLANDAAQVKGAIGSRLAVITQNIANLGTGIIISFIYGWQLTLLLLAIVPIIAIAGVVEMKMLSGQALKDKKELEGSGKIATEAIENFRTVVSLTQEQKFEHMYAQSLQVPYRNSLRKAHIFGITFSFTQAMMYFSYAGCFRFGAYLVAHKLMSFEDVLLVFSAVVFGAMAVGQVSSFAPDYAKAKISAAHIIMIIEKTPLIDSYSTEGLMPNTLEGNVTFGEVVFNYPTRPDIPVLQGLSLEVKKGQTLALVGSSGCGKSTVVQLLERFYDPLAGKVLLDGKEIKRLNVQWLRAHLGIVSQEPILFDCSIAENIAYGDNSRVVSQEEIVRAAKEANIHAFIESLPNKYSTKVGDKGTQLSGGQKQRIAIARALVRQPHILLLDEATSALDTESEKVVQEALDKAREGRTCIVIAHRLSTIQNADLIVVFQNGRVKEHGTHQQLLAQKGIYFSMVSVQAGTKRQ
Sequence of Cyp-p450 3A4 (P08684 whole entry): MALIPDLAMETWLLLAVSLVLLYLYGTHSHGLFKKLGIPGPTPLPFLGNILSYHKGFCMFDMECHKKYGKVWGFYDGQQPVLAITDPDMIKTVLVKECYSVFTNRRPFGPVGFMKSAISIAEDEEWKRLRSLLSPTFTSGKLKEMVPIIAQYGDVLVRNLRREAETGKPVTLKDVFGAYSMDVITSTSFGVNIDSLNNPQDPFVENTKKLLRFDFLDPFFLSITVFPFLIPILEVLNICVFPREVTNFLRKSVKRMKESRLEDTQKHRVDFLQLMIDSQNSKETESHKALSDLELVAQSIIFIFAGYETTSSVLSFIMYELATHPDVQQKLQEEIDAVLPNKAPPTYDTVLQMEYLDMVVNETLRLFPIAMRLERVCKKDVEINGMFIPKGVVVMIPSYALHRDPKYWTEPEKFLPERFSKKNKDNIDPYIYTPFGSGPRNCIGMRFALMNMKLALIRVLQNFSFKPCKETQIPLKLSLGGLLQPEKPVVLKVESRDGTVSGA
Sequence of Cyp-p450 1A2 (P05177 whole entry): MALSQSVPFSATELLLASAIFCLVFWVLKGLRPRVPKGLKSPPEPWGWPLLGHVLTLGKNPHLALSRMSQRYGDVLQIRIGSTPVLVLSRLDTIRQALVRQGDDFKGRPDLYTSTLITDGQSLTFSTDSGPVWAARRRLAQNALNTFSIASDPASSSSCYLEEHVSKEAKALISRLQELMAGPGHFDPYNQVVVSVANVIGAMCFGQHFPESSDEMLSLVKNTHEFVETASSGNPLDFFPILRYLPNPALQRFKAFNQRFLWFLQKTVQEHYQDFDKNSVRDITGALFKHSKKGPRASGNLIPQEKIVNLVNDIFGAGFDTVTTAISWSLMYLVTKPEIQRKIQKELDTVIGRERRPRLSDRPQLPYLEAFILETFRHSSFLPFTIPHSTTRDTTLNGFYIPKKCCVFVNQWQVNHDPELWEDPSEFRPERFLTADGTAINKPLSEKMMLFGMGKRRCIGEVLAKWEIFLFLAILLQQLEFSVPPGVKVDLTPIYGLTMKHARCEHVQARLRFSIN
Sequence of Cyp-p450 2C9 (P11712 whole entry): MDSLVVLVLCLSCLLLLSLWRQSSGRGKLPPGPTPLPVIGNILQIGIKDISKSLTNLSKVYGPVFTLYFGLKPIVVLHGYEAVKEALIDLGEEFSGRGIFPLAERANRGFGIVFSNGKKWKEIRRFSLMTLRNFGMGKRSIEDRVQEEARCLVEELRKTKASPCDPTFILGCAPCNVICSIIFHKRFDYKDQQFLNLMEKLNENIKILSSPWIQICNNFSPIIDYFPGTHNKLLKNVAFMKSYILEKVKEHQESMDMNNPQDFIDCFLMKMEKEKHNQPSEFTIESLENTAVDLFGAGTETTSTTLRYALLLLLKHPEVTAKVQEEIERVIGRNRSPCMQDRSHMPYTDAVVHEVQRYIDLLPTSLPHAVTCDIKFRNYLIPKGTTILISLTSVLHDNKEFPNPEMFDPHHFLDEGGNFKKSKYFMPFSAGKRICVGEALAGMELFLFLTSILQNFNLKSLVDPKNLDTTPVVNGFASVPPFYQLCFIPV
Sequence of Cyp-p450 2B6 (P20813 whole entry): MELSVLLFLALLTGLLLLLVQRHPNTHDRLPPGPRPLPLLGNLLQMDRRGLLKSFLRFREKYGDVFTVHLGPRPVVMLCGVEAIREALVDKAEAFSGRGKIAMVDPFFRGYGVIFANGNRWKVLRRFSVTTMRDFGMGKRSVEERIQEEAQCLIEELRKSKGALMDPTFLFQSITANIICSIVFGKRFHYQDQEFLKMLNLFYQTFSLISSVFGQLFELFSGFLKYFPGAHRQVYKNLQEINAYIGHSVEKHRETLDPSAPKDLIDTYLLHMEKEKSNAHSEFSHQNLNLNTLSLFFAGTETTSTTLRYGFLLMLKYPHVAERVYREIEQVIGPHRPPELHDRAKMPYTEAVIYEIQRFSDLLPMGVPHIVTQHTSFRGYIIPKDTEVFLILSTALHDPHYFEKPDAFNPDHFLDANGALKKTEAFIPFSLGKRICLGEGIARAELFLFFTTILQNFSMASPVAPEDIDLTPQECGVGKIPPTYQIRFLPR
Sequence of Cyp-p450 2C8 (P10632 whole entry): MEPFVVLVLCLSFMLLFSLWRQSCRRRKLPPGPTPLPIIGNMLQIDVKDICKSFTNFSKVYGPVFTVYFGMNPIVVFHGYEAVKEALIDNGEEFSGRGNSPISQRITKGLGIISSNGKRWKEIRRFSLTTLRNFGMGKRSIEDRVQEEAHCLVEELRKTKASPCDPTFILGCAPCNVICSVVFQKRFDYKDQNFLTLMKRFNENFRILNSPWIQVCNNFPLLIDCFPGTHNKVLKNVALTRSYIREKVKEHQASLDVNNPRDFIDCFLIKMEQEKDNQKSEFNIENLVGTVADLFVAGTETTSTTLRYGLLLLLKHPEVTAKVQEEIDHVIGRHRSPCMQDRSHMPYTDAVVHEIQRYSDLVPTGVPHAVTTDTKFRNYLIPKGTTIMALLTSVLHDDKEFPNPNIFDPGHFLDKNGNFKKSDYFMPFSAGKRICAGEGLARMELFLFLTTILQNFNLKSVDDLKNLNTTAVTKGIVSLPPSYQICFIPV
Sequence of Cyp-p450 2D6 (P10635 whole entry): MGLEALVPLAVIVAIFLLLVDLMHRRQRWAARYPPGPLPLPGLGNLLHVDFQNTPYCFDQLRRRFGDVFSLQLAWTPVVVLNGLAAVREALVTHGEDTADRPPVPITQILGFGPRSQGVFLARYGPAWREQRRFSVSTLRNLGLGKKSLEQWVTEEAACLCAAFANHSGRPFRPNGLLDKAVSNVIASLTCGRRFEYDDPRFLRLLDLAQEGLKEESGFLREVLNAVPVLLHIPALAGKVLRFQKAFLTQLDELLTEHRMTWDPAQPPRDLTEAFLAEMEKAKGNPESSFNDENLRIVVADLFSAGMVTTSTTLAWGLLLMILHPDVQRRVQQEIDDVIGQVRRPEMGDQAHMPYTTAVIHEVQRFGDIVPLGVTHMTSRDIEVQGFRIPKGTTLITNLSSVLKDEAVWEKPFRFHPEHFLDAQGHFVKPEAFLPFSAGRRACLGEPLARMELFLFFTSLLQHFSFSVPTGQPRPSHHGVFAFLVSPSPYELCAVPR
Sequence of Cyp-p450 2C19 (P33261 whole entry): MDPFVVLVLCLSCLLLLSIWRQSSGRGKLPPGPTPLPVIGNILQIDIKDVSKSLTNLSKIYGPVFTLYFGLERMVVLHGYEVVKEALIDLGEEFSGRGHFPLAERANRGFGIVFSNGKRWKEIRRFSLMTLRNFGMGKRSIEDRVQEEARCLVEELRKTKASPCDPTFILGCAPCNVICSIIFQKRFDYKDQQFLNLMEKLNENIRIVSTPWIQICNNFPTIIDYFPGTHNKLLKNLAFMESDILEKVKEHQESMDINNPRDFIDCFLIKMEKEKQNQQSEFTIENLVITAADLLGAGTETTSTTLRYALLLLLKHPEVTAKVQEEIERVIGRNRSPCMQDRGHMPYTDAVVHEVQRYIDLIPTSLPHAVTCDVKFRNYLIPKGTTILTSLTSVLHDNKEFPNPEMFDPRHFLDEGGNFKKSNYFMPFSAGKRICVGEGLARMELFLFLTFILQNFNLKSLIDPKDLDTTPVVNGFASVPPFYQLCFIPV

CCC12CC3CC(C(=O)N4CCC(N)CC4)(C1)CC(c1ccccc1)(C3)C2 (racemic) [Example A32]
CC50 [1]: 6000 nM
EC50 [2]: 215 nM
EC50 [3]: 90 nM
Ebola Zaire SI (CC50/EC50) [4]: 64
EC50 [5]: 7600 nM
EC50 [6]: 65 nM
EC50 [7]: 1330 nM
EC50 [8]: 42 nM

CC1(C)CN(C(=O)C23CC4C[C@@](C)(C2)C[C@](c2ccccc2)(C4)C3)CCC1N (stereo partly drawn) [Example B8]
Sudan Gulu SI (CC50/EC50) [9]: 128
CC50 [1]: 12400 nM
EC50 [2]: 58 nM
EC50 [3]: 84 nM
Liver Microsome Stability % Remaining after 60 Minutes, Mouse [10]: 47%
EC50 [11]: 130 nM
Liver Microsome Stability % Remaining after 60 Minutes, Human [12]: 76%
Liver Microsome Stability % Remaining after 60 Minutes, Monkey [13]: 30%
Liver Microsome Stability % Remaining after 60 Minutes, Guinea Pig [14]: 56%
EC50 [6]: 50 nM
EC50 [8]: 12 nM

C[C@]12CC3CC(C(=O)N[C@H]4CC[C@@H](N)CC4)(C1)C[C@@](c1ccccc1)(C3)C2.Cl [Example B2]
Turbidimetric solubility [15]: >500 µM
IC50 [16]: > 100000 nM
CC50 [1]: 19100 nM
EC50 [2]: 277 nM
EC50 [3]: 67 nM
IC50 ([17]; CYP Inhibition 3A4 (Midazolam)): > 100000 nM
IC50 ([17]; CYP Inhibition 3A4 (Testosterone)): 88000 nM
Liver Microsome Stability % Remaining after 60 Minutes, Mouse [10]: 71%
EC50 [11]: 1100 nM
CC50 [18]: 67600 nM
EC50 [19]: 180 nM
IC50 [20]: > 100000 nM
IC50 [21]: > 100000 nM
fraction unbound [22]: 0.011
Papp A→B [23]: 3.07 ×10⁻⁶ cm/s
Papp B→A [23]: 7.86 ×10⁻⁶ cm/s
efflux ratio [23]: 2.71
EC50 [24]: 440 nM
Ebola Zaire SI (CC50/EC90) [25]: 72.5
Liver Microsome Stability % Remaining after 60 Minutes, Human [12]: 100%
Liver Microsome Stability % Remaining after 60 Minutes, Monkey [13]: 85%
IC50 [26]: > 100000 nM
IC50 [27]: > 100000 nM
SI50 (CC50/EC50) [28]: 282
EC50 ([28]; Zaire ebolavirus, Vero): 240 nM
P-gp substrate ID Caco-2 Permeability (+Verapamil) Paap Mean A > B [29]: 6.19 10^−6 cm s^−1
P-gp substrate ID Caco-2 Permeability (+Verapamil) Paap Mean B > A [29]: 6.83 10^−6 cm s^−1
EC90 [30]: 800 nM
solubility [31]: > 500 µM
EC50 [5]: 6450 nM
Liver Microsome Stability % Remaining after 60 Minutes, Guinea Pig [14]: 100%
EC50 [6]: 10 nM
EC50 [7]: 240 nM
fraction unbound [32]: 0.039
EC50 [8]: 15 nM
IC50 [33]: 51000 nM

C[C@]12CC3CC(C(=O)N4CCC(N)CC4)(C1)C[C@@](c1ccccc1)(C3)C2 [Example B7]
CC50 [1]: 31000 nM
EC50 [2]: 116 nM
EC50 [3]: 72 nM
Liver Microsome Stability % Remaining after 60 Minutes, Mouse [10]: 77%
EC50 [19]: 170 nM
EC50 [24]: 1900 nM
Liver Microsome Stability % Remaining after 60 Minutes, Human [12]: 86%
Liver Microsome Stability % Remaining after 60 Minutes, Monkey [13]: 53%
EC50 [34]: 360 nM
EC50 [5]: 8000 nM
Liver Microsome Stability % Remaining after 60 Minutes, Guinea Pig [14]: 72%
EC50 [6]: 40 nM
EC50 [7]: 880 nM
EC50 [8]: 45 nM
